Test results published in patent US9937151B2, “Carbapenem antibacterials with gram-negative activity” (priority 2010, dated 2018).
Values after ≈ are worked out from the molar mass of the structure shown.

Tested on: G(−) bacterial strains
Assay: Dilution antimicrobial susceptibility tests (MIC, NCCLS agar dilution / broth dilution)
Type: cell-based, Gram-negative organisms
Details: unit assumed
Description: The MIC (minimum inhibitory concentration) was determined by the NCCLS (National Committee for Clinical Laboratory Standards) methods 2000. Methods for dilution antimicrobial susceptibility testing for bacteria that growth aerobically (M7-A5, vol. 20, No. 2). The agar dilution method for determining antimicrobial susceptibility was carried out using Mueller-Hinton agar. A final inoculum of 10^4 CFU/spot was applied with an inoculation device. Broth dilution tests were performed with 5×10^5 CFU/well in 96 well plates. The susceptibilities of streptococci were determined by Mueller-Hinton agar supplemented with 5% sheep blood. All assays were run with the indicated control strains, available from the ATCC (American Type Culture Collection, Rockville, Md.).
Abbreviations used in Table 1 are defined as follows: Cf-R: Ceftazidime Resistance, Ci-R: Ciprofloxacin Resistance, Gen-R: Gentamycin Resistance, Imp-R: Imipenem Resistance, Mp-R: Meropenem Resistance, Ofx-R: Ofloxacin Resistance, B+: β-lactamase Production, AmpC: AmpC-lactamase Hyper production, CBPase: Carbapenemase Production.

[1] = strain #1 Acinetobacter calcoaceticus
[2] = strain #2 Acinetobacter baumannii, Cf-R, Ci-R
[3] = strain #3 Acinetobacter baumannii, Cf-R, Ci-R, Mp-I
[4] = strain #4 Acinetobacter baumannii, Cf-R, Imp-I, CBPase
[5] = strain #7 Enterobacter aerogenes
[6] = strain #8 Enterobacter cloacae, Cf-R, B+
[7] = strain #9 Enterobacter cloacae, Cf-R
[8] = strain #10 Escherichia coli, Ci-R
[9] = strain #11 Escherichia coli, Ci-R, AmpC
[10] = strain #15 Klebsiella pneumoniae
[11] = strain #16 Moraxella catarrhalis
[12] = strain #21 Providencia rettgeri
[13] = strain #22 Salmonella typhimurium
[14] = strain #25 Shigella dysenteriae
[15] = strain #28 Stenotrophomonas maltophilia
[16] = strain #29 Pseudomonas aeruginosa
[17] = strain #30 Pseudomonas aeruginosa
[18] = strain #31 Pseudomonas aeruginosa, Ofx-R
[19] = strain #32 Pseudomonas aeruginosa, Cf-R
[20] = strain #33 Pseudomonas aeruginosa, Ci-R
[21] = strain #34 Pseudomonas aeruginosa, Gen-R
[22] = strain #35 Pseudomonas aeruginosa, Ip-R
[23] = strain #36 Pseudomonas aeruginosa, Cf-R, Ci-R, Mp-R

Compound | MIC [1] | MIC [2] | MIC [3] | MIC [4] | MIC (strain #5 Citrobacter diversus) | MIC (strain #6 Citrobacter freundii) | MIC [5] | MIC [6] | MIC [7] | MIC [8] | MIC [9] | MIC (strain #12 Escherichia coli) | MIC (strain #13 Escherichia coli) | MIC (strain #14 Klebsiella oxytoca) | MIC [10] | MIC [11] | MIC (strain #17 Morganella Morganii) | MIC (strain #18 Morganella Morganii) | MIC (strain #19 Proteus vulgaris) | MIC (strain #20 Proteus mirabilis) | further results
CC(O)C1C(=O)N2C(C(=O)O)=C(CN3CC(O)C(C(=N)N)C3)C(C)C12 (mixture of isomers) [Compound 185b] | 0.13 µg/mL | 0.5 µg/mL | 2 µg/mL | 1 µg/mL | 0.063 µg/mL | 0.063 µg/mL | 0.25 µg/mL | 0.063 µg/mL | 0.13 µg/mL | 0.031 µg/mL | 0.031 µg/mL | 0.031 µg/mL | 0.063 µg/mL | 0.13 µg/mL | 0.13 µg/mL | ≤ 0.008 µg/mL | 0.5 µg/mL | 0.5 µg/mL | 0.25 µg/mL | 0.063 µg/mL | MIC [12]: 0.25 µg/mL; MIC [13]: 0.063 µg/mL; MIC (strain #23 Serratia marcescens): 0.13 µg/mL; MIC (strain #24 Serratia marcescens): 0.13 µg/mL; MIC [14]: 0.063 µg/mL; MIC (strain #26 Shigella sonnei): 0.063 µg/mL; MIC (strain #27 Shigella flexneri): 0.063 µg/mL; MIC [15]: 0.13 µg/mL; MIC [16]: 1 µg/mL; MIC [17]: 1 µg/mL; MIC [18]: 0.5 µg/mL; MIC [19]: 1 µg/mL; MIC [20]: 1 µg/mL; MIC [21]: 1 µg/mL; MIC [22]: 4 µg/mL; MIC [23]: 8 µg/mL
C[C@@H](O)C1C(=O)N2C(C(=O)O)=C(CN3CC[C@H](NC=N)C3)[C@H](C)C12 (stereo partly drawn) [Compound 84] | 0.25 µg/mL (≈ 0.743 µM) | 0.5 µg/mL (≈ 1.49 µM) | 1 µg/mL (≈ 2.97 µM) | 1 µg/mL (≈ 2.97 µM) | 0.25 µg/mL (≈ 0.743 µM) | 0.5 µg/mL (≈ 1.49 µM) | 1 µg/mL (≈ 2.97 µM) | 0.25 µg/mL (≈ 0.743 µM) | 0.5 µg/mL (≈ 1.49 µM) | 0.25 µg/mL (≈ 0.743 µM) | 0.25 µg/mL (≈ 0.743 µM) | 0.25 µg/mL (≈ 0.743 µM) | 0.5 µg/mL (≈ 1.49 µM) | 0.5 µg/mL (≈ 1.49 µM) | 0.5 µg/mL (≈ 1.49 µM) | ≤ 0.008 µg/mL | 4 µg/mL (≈ 11.9 µM) | 2 µg/mL (≈ 5.95 µM) | 1 µg/mL (≈ 2.97 µM) | 0.5 µg/mL (≈ 1.49 µM) | MIC [12]: 2 µg/mL (≈ 5.95 µM); MIC [13]: 0.5 µg/mL (≈ 1.49 µM); MIC (strain #23 Serratia marcescens): 1 µg/mL (≈ 2.97 µM); MIC (strain #24 Serratia marcescens): 1 µg/mL (≈ 2.97 µM); MIC [14]: 0.5 µg/mL (≈ 1.49 µM); MIC (strain #26 Shigella sonnei): 0.5 µg/mL (≈ 1.49 µM); MIC (strain #27 Shigella flexneri): 0.25 µg/mL (≈ 0.743 µM); MIC [15]: 0.25 µg/mL (≈ 0.743 µM); MIC [16]: 2 µg/mL (≈ 5.95 µM); MIC [17]: 2 µg/mL (≈ 5.95 µM); MIC [18]: 0.5 µg/mL (≈ 1.49 µM); MIC [19]: 2 µg/mL (≈ 5.95 µM); MIC [20]: 2 µg/mL (≈ 5.95 µM); MIC [21]: 2 µg/mL (≈ 5.95 µM); MIC [22]: 4 µg/mL (≈ 11.9 µM); MIC [23]: 16 µg/mL (≈ 47.6 µM)
C[C@@H](O)C1C(=O)N2C(C(=O)O)=C(CN3CC[C@H](C(=O)NS(N)(=O)=O)C3)[C@H](C)C12 (stereo partly drawn) [Compound 19] | 0.5 µg/mL (≈ 1.2 µM) | 0.5 µg/mL (≈ 1.2 µM) | 2 µg/mL (≈ 4.8 µM) | 1 µg/mL (≈ 2.4 µM) | 0.25 µg/mL (≈ 0.6 µM) | 0.25 µg/mL (≈ 0.6 µM) | 1 µg/mL (≈ 2.4 µM) | 0.25 µg/mL (≈ 0.6 µM) | 0.5 µg/mL (≈ 1.2 µM) | 0.25 µg/mL (≈ 0.6 µM) | 0.25 µg/mL (≈ 0.6 µM) | 0.25 µg/mL (≈ 0.6 µM) | 0.25 µg/mL (≈ 0.6 µM) | 0.5 µg/mL (≈ 1.2 µM) | 0.5 µg/mL (≈ 1.2 µM) | ≤ 0.008 µg/mL | 4 µg/mL (≈ 9.6 µM) | 2 µg/mL (≈ 4.8 µM) | 1 µg/mL (≈ 2.4 µM) | 0.25 µg/mL (≈ 0.6 µM) | MIC [12]: 1 µg/mL (≈ 2.4 µM); MIC [13]: 0.25 µg/mL (≈ 0.6 µM); MIC (strain #23 Serratia marcescens): 1 µg/mL (≈ 2.4 µM); MIC (strain #24 Serratia marcescens): 1 µg/mL (≈ 2.4 µM); MIC [14]: 0.25 µg/mL (≈ 0.6 µM); MIC (strain #26 Shigella sonnei): 0.25 µg/mL (≈ 0.6 µM); MIC (strain #27 Shigella flexneri): 0.25 µg/mL (≈ 0.6 µM); MIC [15]: 0.25 µg/mL (≈ 0.6 µM); MIC [16]: 4 µg/mL (≈ 9.6 µM); MIC [17]: 4 µg/mL (≈ 9.6 µM); MIC [18]: 1 µg/mL (≈ 2.4 µM); MIC [19]: 4 µg/mL (≈ 9.6 µM); MIC [20]: 4 µg/mL (≈ 9.6 µM); MIC [21]: 4 µg/mL (≈ 9.6 µM); MIC [22]: 8 µg/mL (≈ 19.2 µM); MIC [23]: 32 µg/mL (≈ 76.8 µM)
